Assay results published in patent US20230083015A1, “SMALL MOLECULE DEGRADERS OF STAT3” (THE REGENTS OF THE UNIVERSITY OF MICHIGAN, priority 2019, published 2023).
Like-named read-outs stand apart in the source and are kept apart here.

Columns and labels:
[1] = target: STAT3 (Homo sapiens, UniProt P40763); test: Estimated DC50 for STAT3 degradation in MOLM-16 cells (immunoblotting); format: cell-based; set-up: In vitro cultured cells or xenograft tumors were lysed; endogenous in cells; host or cells: MOLM-16
Experimental: (§1) FIG. 62 is a series of four images showing the fluorescent immunoblotting analysis of STAT1 and STAT3 protein in Molm-16 cells after treatment for 4 h with Cpd. Nos. 331, 296, 361, 362, 363, 364, 365, 366, and 367 at the concentrations indicated.
(§2) In vitro cultured cells or xenograft tumors were lysed 1× Cell Lysis Buffer (Cell Signaling Technology, #9803), resolved by SDS-PAGE NuPAGE gel (Thermo Fisher Scientific), and transferred to a PVDF membrane (Bio Rad). For chemiluminescence immunoblotting, membranes were blocked for 1 h using 5% Blotting-Grade Blocker (#1706404, Bio Rad) in 1× Tris-buffered saline with Tween 20 (TBST, Pierce). Antibodies used were: rabbit mAbs for STAT3 (Cell Signaling Technology, #4368, #12640) and p-STAT3 (Y705) (Cell Signaling Technology, #9245, #52075). HRP conjugated goat anti-rabbit IgG (H+L) (#A27036) secondary antibodies was from Thermo Fisher Scientific. GAPDH (Santa Cruz Technology, sc-47724HRP) and actin (Santa Cruz Technology, sc-8432HRP, sc-47778HRP) were loading controls. For fluorescent immunoblotting, membranes were blocked using Odyssey TBS Blocker Buffer (LI-COR). IRDye 680RD and 800CW Dye-labeled secondary antibodies (LI-COR) were used. The washed membranes were scanned using Odyssey CLx imager (LI-COR). The intensity of Western blot signaling was quantitated using the Odyssey software.
(§3) The estimated DC50 in MOLM-16 cells of representative Compounds of the Disclosure against STAT3 and STAT1 is provide in Table 5.

[2] = target: T1, STAT1 (Homo sapiens, UniProt P42224); test: Estimated DC50 for STAT1 degradation in MOLM-16 cells (immunoblotting); format: cell-based
T1 construct: In vitro cultured cells or xenograft tumors were lysed; endogenous in cells; host or cells: MOLM-16
T1 sequence (P42224 1-750): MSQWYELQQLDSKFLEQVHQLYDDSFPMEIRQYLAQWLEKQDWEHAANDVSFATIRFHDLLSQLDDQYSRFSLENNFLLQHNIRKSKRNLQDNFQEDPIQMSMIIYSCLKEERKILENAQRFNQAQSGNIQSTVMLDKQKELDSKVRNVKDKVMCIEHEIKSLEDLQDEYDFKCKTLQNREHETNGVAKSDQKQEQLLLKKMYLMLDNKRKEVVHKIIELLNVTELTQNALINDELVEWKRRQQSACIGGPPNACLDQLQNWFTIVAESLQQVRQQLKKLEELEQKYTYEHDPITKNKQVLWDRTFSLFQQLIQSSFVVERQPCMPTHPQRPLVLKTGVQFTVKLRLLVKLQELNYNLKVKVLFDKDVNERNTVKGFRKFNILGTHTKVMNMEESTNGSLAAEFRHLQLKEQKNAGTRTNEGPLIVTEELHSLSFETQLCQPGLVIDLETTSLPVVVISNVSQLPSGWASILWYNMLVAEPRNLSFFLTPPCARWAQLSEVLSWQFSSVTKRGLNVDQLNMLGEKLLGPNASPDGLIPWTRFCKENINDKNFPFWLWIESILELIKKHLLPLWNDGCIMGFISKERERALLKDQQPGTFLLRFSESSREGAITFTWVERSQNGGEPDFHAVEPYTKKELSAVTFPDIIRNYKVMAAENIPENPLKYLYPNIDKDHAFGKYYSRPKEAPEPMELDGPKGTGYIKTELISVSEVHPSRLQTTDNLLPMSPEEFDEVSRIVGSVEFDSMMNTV
Experimental: as §1, §2, §3

[3] = MOLM-16, 4 h; read-out: Estimated DC50 STAT3
[4] = MOLM-16, 4 h; read-out: Estimated DC50 STAT1

Chain of STAT3 (P40763 whole entry): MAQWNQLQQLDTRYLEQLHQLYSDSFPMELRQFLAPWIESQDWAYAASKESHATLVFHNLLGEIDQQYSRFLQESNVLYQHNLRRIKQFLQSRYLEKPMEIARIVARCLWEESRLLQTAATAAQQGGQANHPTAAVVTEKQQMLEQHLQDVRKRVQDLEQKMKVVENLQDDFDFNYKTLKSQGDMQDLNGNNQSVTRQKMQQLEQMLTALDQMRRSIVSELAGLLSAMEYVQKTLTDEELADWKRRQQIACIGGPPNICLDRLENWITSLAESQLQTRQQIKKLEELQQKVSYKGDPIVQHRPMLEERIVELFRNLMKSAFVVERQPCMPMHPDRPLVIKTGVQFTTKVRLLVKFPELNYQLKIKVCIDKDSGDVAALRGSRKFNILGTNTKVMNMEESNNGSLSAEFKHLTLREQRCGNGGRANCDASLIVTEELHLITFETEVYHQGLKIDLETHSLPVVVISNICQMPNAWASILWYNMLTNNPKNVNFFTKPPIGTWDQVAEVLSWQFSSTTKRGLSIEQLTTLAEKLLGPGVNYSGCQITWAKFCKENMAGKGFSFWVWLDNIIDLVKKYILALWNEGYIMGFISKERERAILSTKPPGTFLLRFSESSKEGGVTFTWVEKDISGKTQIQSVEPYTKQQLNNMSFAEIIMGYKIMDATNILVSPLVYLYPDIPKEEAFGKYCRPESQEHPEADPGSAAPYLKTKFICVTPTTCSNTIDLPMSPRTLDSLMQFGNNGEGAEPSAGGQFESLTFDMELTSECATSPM

SMILES	DC50 [1, 3] [nM]	DC50 ([1]; read-out: Estimated DC50 STAT3; MOLM-16, 4 h) [nM]	DC50 ([2]; read-out: Estimated DC50 STAT1; MOLM-16, 4 h) [nM]	DC50 [2, 4] [nM]
NC(=O)CC[C@H](NC(=O)[C@@H]1CC[C@@H]2CCN(C(=O)CCCCCC#Cc3cccc4c3CN(C3CCC(=O)NC3=O)C4=O)C[C@H](NC(=O)c3cc4cc(C(F)(F)P(=O)(O)O)ccc4s3)C(=O)N21)C(=O)NC(Cc1ccccc1)Cc1ccccc1 (stereo partly drawn) [Cpd. No. 349, ((2-(((5S,8S,10aR)-8-(((S)-5-amino-1-((1,3-diphenylpropan-2-yl)amino)-1,5-dioxopentan-2-yl)carbamoyl)-3-(8-(2-(2,6-dioxopiperidin-3-yl)-1-oxoisoindolin-4-yl)oct-7-ynoyl)-6-oxodecahydropyrrolo[1,2-a][1,5]diazocin-5-yl)carbamoyl)benzo[b]thiophen-5-yl)difluoromethyl) phosphonic acid]	200	–	–	–
CCN1CC[C@H]2CC[C@@H](C(=O)N[C@@H](CCC(N)=O)C(=O)N[C@@H](Cc3ccc(S(=O)(=O)c4ccccc4)cc3)C(=O)N3CCC(CCC#Cc4cccc5c4CN(C4CCC(=O)NC4=O)C5=O)CC3)N2C(=O)[C@@H](NC(=O)c2cc3cc(C(F)(F)P(=O)(O)O)ccc3s2)C1 (stereo partly drawn) [Cpd. No. 352]	–	< 250	250	–
CCN1CC[C@H]2CC[C@@H](C(=O)N[C@@H](CCC(N)=O)C(=O)N[C@@H](Cc3ccc(S(=O)(=O)C4CC4)cc3)C(=O)N3CCC(CCC#Cc4cccc5c4CN(C4CCC(=O)NC4=O)C5=O)CC3)N2C(=O)[C@@H](NC(=O)c2cc3cc(C(F)(F)P(=O)(O)O)ccc3s2)C1 (stereo partly drawn) [Cpd. No. 353, ((2-(((5S,8S,10aR)-8-(((2S)-5-amino-1-(((2S)-3-(4-(cyclopropylsulfonyl)phenyl)-1-(4-(4-(2-(2,6-dioxopiperidin-3-yl)-1-oxoisoindolin-4-yl)but-3-yn-1-yl)piperidin-1-yl)-1-oxopropan-2-yl)amino)-1,5-dioxopentan-2-yl)carbamoyl)-3-ethyl-6-oxodecahydropyrrolo[1,2-a][1,5]diazocin-5-yl)carbamoyl)benzo[b]thiophen-5-yl)difluoromethyl)phosphonic Acid]	< 250	–	–	500
CCN1CC[C@H]2CC[C@@H](C(=O)N[C@@H](CCC(N)=O)C(=O)N[C@@H](Cc3ccc(NS(=O)(=O)c4ccc(C)cc4)cc3)C(=O)N3CCC(CCC#Cc4cccc5c4CN(C4CCC(=O)NC4=O)C5=O)CC3)N2C(=O)[C@@H](NC(=O)c2cc3cc(C(F)(F)P(=O)(O)O)ccc3s2)C1 (stereo partly drawn) [Cpd. No. 354, ((2-(((5S,8S,10aR)-8-(((2S)-5-amino-1-(((2S)-1-(4-(4-(2-(2,6-dioxopiperidin-3-yl)-1-oxoisoindolin-4-yl)but-3-yn-1-yl)piperidin-1-yl)-3-(4-((4-methylphenyl)sulfonamido)phenyl)-1-oxopropan-2-yl)amino)-1,5-dioxopentan-2-yl)carbamoyl)-3-ethyl-6-oxodecahydropyrrolo[1,2-a][1,5]diazocin-5-yl)carbamoyl)benzo[b]thiophen-5-yl)difluoromethyl)phosphonic Acid]	< 250	–	–	250
CCN1CC[C@H]2CC[C@@H](C(=O)N[C@@H](CCC(N)=O)C(=O)N[C@@H](Cc3ccc(NS(=O)(=O)c4ccc(C5CCCCC5)cc4)cc3)C(=O)N3CCC(CCC#Cc4cccc5c4CN(C4CCC(=O)NC4=O)C5=O)CC3)N2C(=O)[C@@H](NC(=O)c2cc3cc(C(F)(F)P(=O)(O)O)ccc3s2)C1 (stereo partly drawn) [Cpd. No. 357, ((2-(((5S,8S,10aR)-8-(((2S)-5-amino-1-(((2S)-3-(4-((4-cyclohexylphenyl)sulfonamido)phenyl)-1-(4-(4-(2-(2,6-dioxopiperidin-3-yl)-1-oxoisoindolin-4-yl)but-3-yn-1-yl)piperidin-1-yl)-1-oxopropan-2-yl)amino)-1,5-dioxopentan-2-yl)carbamoyl)-3-ethyl-6-oxodecahydropyrrolo[1,2-a][1,5]diazocin-5-yl)carbamoyl)benzo[b]thiophen-5-yl)difluoromethyl) phosphonic acid]	500	–	–	> 1000
